The values below come from patent US20220081444A1, “6,7-DIHYDRO-4H-PYRAZOLO[1,5-A]PYRAZINE INDOLE-2-CARBOXAMIDES ACTIVE AGAINST THE HEPATITIS B VIRUS (HBV)” (AiCuris GmbH & Co. KG, priority 2018, published 2022).

Molecules are shown by their SMILES. Structures can show the parent of a compound that is named as a salt. Where only a bound is given, the exact number is not on record here.

In this assay the test system is HBV. The settings on record: Hepatitis B virus, HePAD38, 144 h, read-out: Cell Activity (EC50).
Regarding `O=C(Nc1cc2n(n1)CCN(C(=O)c1cc3c(Cl)cccc3[nH]1)C2)C1CCOC1` (stereo not shown) [Example 19, N-[5-(4-chloro-1H-indole-2-carbonyl)-4H,5H,6H,7H-pyrazolo[1,5-a]pyrazin-2-yl]oxolane-3-carboxamide], the EC50 (as a rule, the concentration giving half of the maximal effect) was below 1000 nM. The figure for `CC(C)(C)OC(=O)N1CC(C(=O)Nc2cc3n(n2)CCN(C(=O)c2cc4ccccc4[nH]2)C3)C1` [Example 7, tert-butyl 3-{[5-(1H-indole-2-carbonyl)-4H,5H,6H,7H-pyrazolo[1,5-a]pyrazin-2-yl]carbamoyl}azetidine-1-carboxylate] is below 1000 nM.

On to `COC1CCC(Nc2cc3n(n2)CCN(C(=O)c2cc4ccccc4[nH]2)C3)CC1` (stereo not shown) [Example 80, 5-(1H-indole-2-carbonyl)-N-(4-methoxycyclohexyl)-4H,5H,6H,7H-pyrazolo[1,5-a]pyrazin-2-amine], for which the concentration for a half-maximal effect (EC50) was below 1000 nM. The figure for `O=C(Nc1cc2n(n1)CCN(C(=O)c1cc3ccccc3[nH]1)C2)C1CCN(C2CCOCC2)CC1` [Example 69, N-[5-(1H-indole-2-carbonyl)-4H,5H,6H,7H-pyrazolo[1,5-a]pyrazin-2-yl]-1-(oxan-4-yl)piperidine-4-carboxamide] is below 1000 nM; for `CC(=O)Nc1cc2n(n1)CCN(C(=O)c1cc3ccccc3[nH]1)C2` [Example 14, N-[5-(1H-indole-2-carbonyl)-4H,5H,6H,7H-pyrazolo[1,5-a]pyrazin-2-yl]acetamide] it is below 1000 nM; for `CCc1cccc2[nH]c(C(=O)N3CCn4nc(NS(=O)(=O)C5CC5)cc4C3)cc12` [Example 40, N-[5-(4-ethyl-1H-indole-2-carbonyl)-4H,5H,6H,7H-pyrazolo[1,5-a]pyrazin-2-yl]cyclopropanesulfonamide] it is below 1000 nM. The result for `O=C(c1cc2ccccc2[nH]1)N1CCn2nc(NCc3ccccc3)cc2C1` [Example 56, N-benzyl-5-(1H-indole-2-carbonyl)-4H,5H,6H,7H-pyrazolo[1,5-a]pyrazin-2-amine] reads 1000 to 10000 nM; that for `CC1(CNc2cc3n(n2)CCN(C(=O)c2cc4ccccc4[nH]2)C3)CCOC1` (stereo not shown) [Example 75, 5-(1H-indole-2-carbonyl)-N-[(3-methyloxolan-3-yl)methyl]-4H,5H,6H,7H-pyrazolo[1,5-a]pyrazin-2-amine], below 1000 nM. The figure for `CC1Cn2nc(N)cc2CN1C(=O)c1cc2ccccc2[nH]1` (stereo not shown) [Example 16, 5-(1H-indole-2-carbonyl)-6-methyl-4H,5H,6H,7H-pyrazolo[1,5-a]pyrazin-2-amine] is below 1000 nM; for `O=C(Nc1cc2n(n1)CCN(C(=O)c1cc3ccccc3[nH]1)C2)C1CCNC(C(F)(F)F)C1` (stereo not shown) [Example 61, N-[5-(1H-indole-2-carbonyl)-4H,5H,6H,7H-pyrazolo[1,5-a]pyrazin-2-yl]-2-(trifluoromethyl)piperidine-4-carboxamide] it is below 1000 nM; for `CC(C)S(=O)(=O)Nc1cc2n(n1)CCN(C(=O)c1cc3ccccc3[nH]1)C2` [Example 47, N-[5-(1H-indole-2-carbonyl)-4H,5H,6H,7H-pyrazolo[1,5-a]pyrazin-2-yl]propane-2-sulfonamide] it is below 1000 nM. For `CCc1cc(F)cc2[nH]c(C(=O)N3CCn4nc(NC(=O)C5CCOC5)cc4C3)cc12` (stereo not shown) [Example 23, N-[5-(4-ethyl-6-fluoro-1H-indole-2-carbonyl)-4H,5H,6H,7H-pyrazolo[1,5-a]pyrazin-2-yl]oxolane-3-carboxamide], the EC50 was below 1000 nM. In the case of `O=C(Nc1cc2n(n1)CCN(C(=O)c1cc3ccccc3[nH]1)C2)C1CCNCC1F` (stereo not shown) [Example 85, 3-fluoro-N-[5-(1H-indole-2-carbonyl)-4H,5H,6H,7H-pyrazolo[1,5-a]pyrazin-2-yl]piperidine-4-carboxamide Trihydrochloride], the EC50 is below 1000 nM.

With `O=C(c1cc2c(Cl)cccc2[nH]1)N1CCn2nc(NCC3CCOC3)cc2C1` (stereo not shown) [Example 26, 5-(4-chloro-1H-indole-2-carbonyl)-N-[(oxolan-3-yl)methyl]-4H,5H,6H,7H-pyrazolo[1,5-a]pyrazin-2-amine], the concentration giving a half-maximal response (EC50) was below 1000 nM.

In the case of `O=C(c1cc2ccccc2[nH]1)N1CCn2nc(NCC3(CO)CCC3)cc2C1` [Example 79, [1-({[5-(1H-indole-2-carbonyl)-4H,5H,6H,7H-pyrazolo[1,5-a]pyrazin-2-yl]amino}methyl)cyclobutyl]methanol], the concentration for a half-maximal effect (EC50) was below 1000 nM. The figure for `O=C(c1cc2ccccc2[nH]1)N1CCn2nc(NS(=O)(=O)C3CCCCC3)cc2C1` [Example 51, N-[5-(1H-indole-2-carbonyl)-4H,5H,6H,7H-pyrazolo[1,5-a]pyrazin-2-yl]cyclohexanesulfonamide] is below 1000 nM. For `Nc1cc2n(n1)CCN(C(=O)c1cc3ccccc3[nH]1)C2` [Example 34, 5-(1H-indole-2-carbonyl)-4H,5H, 6H,7H-pyrazolo[1,5-a]pyrazin-2-amine], the EC50 is below 1000 nM. The result for `COCC1(S(=O)(=O)Nc2cc3n(n2)CCN(C(=O)c2cc4ccccc4[nH]2)C3)CC1` [Example 52, N-[5-(1H-indole-2-carbonyl)-4H,5H,6H,7H-pyrazolo[1,5-a]pyrazin-2-yl]-1-(methoxymethyl)cyclopropane-1-sulfonamide] reads below 1000 nM.

As to `O=C(Nc1cc2n(n1)CCN(C(=O)c1cc3c(Cl)c(F)ccc3[nH]1)C2)C1CCOC1` (stereo not shown) [Example 20, N-[5-(4-chloro-5-fluoro-1H-indole-2-carbonyl)-4H,5H,6H,7H-pyrazolo[1,5-a]pyrazin-2-yl]oxolane-3-carboxamide], the concentration giving a half-maximal response (EC50) is below 1000 nM. The figure for `CC(C)OC1(CNc2cc3n(n2)CCN(C(=O)c2cc4ccccc4[nH]2)C3)CCC1` [Example 78, 5-(1H-indole-2-carbonyl)-N-{[1-(propan-2-yloxy)cyclobutyl]methyl}-4H,5H,6H,7H-pyrazolo[1,5-a]pyrazin-2-amine] is below 1000 nM; for `O=C(c1cc2ccccc2[nH]1)N1CCn2nc(NS(=O)(=O)C3CCOCC3)cc2C1` [Example 53, N-[5-(1H-indole-2-carbonyl)-4H,5H,6H,7H-pyrazolo[1,5-a]pyrazin-2-yl]oxane-4-sulfonamide] it is below 1000 nM.

On to `O=C(c1cc2c(Cl)cc(F)cc2[nH]1)N1CCn2nc(NS(=O)(=O)C3CC3)cc2C1` [Example 38, N-[5-(4-chloro-6-fluoro-1H-indole-2-carbonyl)-4H,5H,6H,7H-pyrazolo[1,5-a]pyrazin-2-yl]cyclopropanesulfonamide], for which the 50% effective concentration (EC50) is below 1000 nM.

Regarding `O=C(c1cc2ccccc2[nH]1)N1CCn2nc(NC3(c4ccccc4)CC3)cc2C1` [Example 84, 5-(1H-indole-2-carbonyl)-N-(1-phenylcyclopropyl)-4H,5H,6H,7H-pyrazolo[1,5-a]pyrazin-2-amine], the half-maximal effective concentration (EC50) is below 1000 nM. The figure for `CCc1cccc2[nH]c(C(=O)N3CCn4nc(NC(=O)C5CCOC5)cc4C3)cc12` (stereo not shown) [Example 24, N-[5-(4-ethyl-1H-indole-2-carbonyl)-4H,5H,6H,7H-pyrazolo[1,5-a]pyrazin-2-yl]oxolane-3-carboxamide] is below 1000 nM; for `O=C(Nc1cc2n(n1)CCN(C(=O)c1cc3c(Cl)cc(F)cc3[nH]1)C2)C1CCOC1` (stereo not shown) [Example 21, N-[5-(4-chloro-6-fluoro-1H-indole-2-carbonyl)-4H,5H,6H,7H-pyrazolo[1,5-a]pyrazin-2-yl]oxolane-3-carboxamide] it is below 1000 nM.
